Source: patent publication US20250327043A1, “ALCOHOL ACYLTRANSFERASE AND A […], TISSUE, AND ORGANISM COMPRISING SAME” (YEDA RESEARCH AND DEVELOPMENT CO. LTD., priority 2022, published 2025)
Entries after “also recorded” stand apart in the source; their conditions may differ.

Assays:
HuAAT5 = assay: AAT enzyme assay with the purified HuAAT5 enzyme; type: biochemical, Helichrysum umbraculigerum; settings: acyl donors acetyl-, iso-butyryl-, iso-valeryl- or hexanoyl-CoA, 30° C., 3 h, pH 7.4
Experimental: (§1) Selected AAT genes from Helichrysum were individually cloned into the pET28b vector and expressed in E. coli BL21 (DE3) cells. Bacterial cells were grown overnight in LB medium at 37° C., diluted in fresh LB 1:100, and re-incubated at 37° C. When cultures reached A600=0.6, protein expression was induced with 400 μM of isopropyl-1-thio-β-d-galactopyranoside (IPTG) overnight at 15° C. Bacterial cells were lysed by sonication in 50 mM Tris-HCl pH 8, 0.5 mM phenylmethylsulfonyl fluoride (PMSF, Sigma Aldrich) solution in isopropanol, 10% glycerol and protease inhibitor cocktail (Sigma Aldrich), and 1 mg ml-1 lysozyme (Sigma Aldrich). The whole-cell extract was either kept for functional activity or used for protein purification. Purification of proteins was performed on Ni-NTA agarose beads (Adar Biotech). The proteins were eluted with 200 mM imidazole (Fluka) in a buffer containing 50 mM NaH2PO4, pH 8, and 0.5 M NaCl. Protein concentration of the eluted fractions was measured with Pierce™ 660 nm protein assay reagent (Thermo Scientific).
(§2) Recombinant AAT assays with the enzyme solutions using different donor and acceptor substrates were performed by mixing 7 μl of the cannabinoid acceptors (OA, CBGA, or heliCBGA, 1 mg ml^−1) with 58 μl of a potassium phosphate buffer (100 mM, pH 7.4) and incubating the mixture at 30° C. for 10 min. Next, 5 μl of the acyl-CoA donors (butyryl-CoA, hexanoyl-CoA, iso-valeryl-CoA, or acetyl-CoA, 10 mM) and 30 μl of the enzyme solutions were added. The reactions were incubated at 30° C. for 3 h. To stop the reactions, 100 μl ethanol was added to each tube, vortexed for 10 s, centrifuged at maximum speed for 10 min, and then the supernatant was recovered and used for UPLC-qTOF analysis. The assay with the purified HuAAT5 enzyme was performed by mixing 2 μl of the cannabinoid acceptors (OA, CBGA, heliCBGA, CBDA, Δ^9-THCA or CBCA) with 2 μl of the acyl-CoA donors (butyryl-CoA, iso-butyryl-CoA, hexanoyl-CoA, iso-valeryl-CoA, or acetyl-CoA, 10 mM), 44 μl of a potassium phosphate buffer (100 mM, pH 7.4), and 2 μl of the purified HuAAT5 enzyme solution. The reactions were incubated at 30° C. for 3 h. To stop the reactions, 50 μl ethanol was added to each tube and the acylated compounds were extracted and analyzed as previously described.

TRPV3 ion channel = target: T1, TRPV3 ion channel (Homo sapiens, UniProt Q8NET8); settings: cited from earlier work
T1 sequence (Q8NET8 1-790): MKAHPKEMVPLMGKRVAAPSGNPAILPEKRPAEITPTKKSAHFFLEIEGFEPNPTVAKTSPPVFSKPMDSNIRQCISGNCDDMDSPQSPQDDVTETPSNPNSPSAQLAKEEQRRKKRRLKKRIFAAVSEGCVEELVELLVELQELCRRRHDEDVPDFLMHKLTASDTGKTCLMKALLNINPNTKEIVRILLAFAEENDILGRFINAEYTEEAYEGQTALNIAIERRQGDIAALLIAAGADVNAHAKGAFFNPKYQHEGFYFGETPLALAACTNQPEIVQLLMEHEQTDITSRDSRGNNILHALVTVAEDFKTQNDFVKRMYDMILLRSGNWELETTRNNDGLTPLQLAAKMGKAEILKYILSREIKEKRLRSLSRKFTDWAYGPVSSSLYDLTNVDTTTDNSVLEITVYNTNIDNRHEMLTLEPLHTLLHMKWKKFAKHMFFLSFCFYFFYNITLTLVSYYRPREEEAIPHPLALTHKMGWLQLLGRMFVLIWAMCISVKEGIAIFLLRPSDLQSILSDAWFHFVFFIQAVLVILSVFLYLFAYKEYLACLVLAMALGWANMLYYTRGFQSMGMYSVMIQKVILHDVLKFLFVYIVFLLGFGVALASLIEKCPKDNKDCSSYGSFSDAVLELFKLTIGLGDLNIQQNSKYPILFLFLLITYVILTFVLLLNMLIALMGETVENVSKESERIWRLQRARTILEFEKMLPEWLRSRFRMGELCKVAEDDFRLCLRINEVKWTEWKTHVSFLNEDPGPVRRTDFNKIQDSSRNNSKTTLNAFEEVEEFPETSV

[1] = Activity of E. coli lysates containing recombinant HuAATs (AAT enzyme assay, UPLC-qTOF readout); type: biochemical, Helichrysum umbraculigerum; settings: for acyltransferase activity of lysate towards the substrates: butyryl-CoA and hexanoyl-CoA as acyl donors, CBGA and heliCBGA as acceptors, 30° C., 3 h
Experimental: as §1
as §2, with “The assay with the purified HuAAT5 enzyme was performed by mixing 2 μl of the cannabinoid acceptors (OA, CBGA, heliCBGA, CBDA, Δ^9-THCA or CBCA) with 2 μl of the acyl-CoA donors (butyryl-CoA, iso-butyryl-CoA, hexanoyl-CoA, iso-valeryl-CoA, or acetyl-CoA, 10 mM), 44 μl of a potassium phosphate buffer (100 mM, pH 7.4), and 2 μl of the purified HuAAT5 enzyme solution. The reactions were incubated at 30° C. for 3 h.” left out

Molecule: CCCCCc1cc(O)cc(O)c1C(=O)O [OA, Olivetolic acid]
- acylation of the cannabinoid acceptor by purified HuAAT5 (HuAAT5): successfully acylated

Molecule: CCC(C)C(=O)Oc1cc(CCc2ccccc2)cc(O)c1CC=C(C)C (stereo not shown) [O-methylbutyryl deprenylhelycannabigenol]
- affinity for the ionotropic TRPV3 ion channel (TRPV3 ion channel): sub-micromolar

Molecule: C=C(C)[C@@H]1CCC(C)=C[C@H]1c1c(O)cc(CCCCC)c(C(=O)O)c1O [CBDA, cannabidiolic acid]
- acylation of the cannabinoid acceptor by purified HuAAT5 (HuAAT5): successfully acylated

Molecule: CCCCCc1cc2c(c(O)c1C(=O)O)[C@@H]1C=C(C)CC[C@H]1C(C)(C)O2 (relative stereo) [Δ^9-THCA, (−)-trans-Δ^9-tetrahydrocannabinolic acid]
- acylation of the cannabinoid acceptor by purified HuAAT5 (HuAAT5): inactive

Molecule: CC(C)=CCCC(C)=CCc1c(O)cc(CCc2ccccc2)c(C(=O)O)c1O [heliCBGA, helicannabigerolic acid]
- acylation of the cannabinoid acceptor by purified HuAAT5 (HuAAT5): successfully acylated

Molecule: CCCCCc1cc(O)c(C/C=C(\C)CCC=C(C)C)c(O)c1C(=O)O [CBGA, cannabigerolic acid]
- acylation of the cannabinoid acceptor by purified HuAAT5 (HuAAT5): successfully acylated

Molecule: CCCCCc1cc2c(c(O)c1C(=O)O)C=CC(C)(CCC=C(C)C)O2 (stereo not shown) [CBCA, cannabichromenic acid]
- acylation of the cannabinoid acceptor by purified HuAAT5 (HuAAT5): inactive

B1: HuAAT14: BAHD alcohol acyltransferase from Helichrysum umbraculigerum, recombinantly expressed in E. coli, SEQ ID NO: 30 (protein, listed as Helichrysum umbraculigerum)
chain: MGTIYQSPMIKSSTPKIIEDLKVIIHDTFTIFPPHETEKRSMFLSNIDQVLTFNVETVHFFAANPDFPPQVVAEKLKLALSKALVPYDFLAGRLKLNHESQRFEFDCNGAGARFVVGSSEFELGEIGDLVYPNPGFRQLVQKSYDNLELHEKPLCILQLTSFKCGGFALGVATNHATFDGLSFKTFLQNLGSLAADQPLAVDPCNDRHLLAARSPPKVQFDHPELLKIPTGTDIPNPTVFDCPESQLDFKIFNLTSDDIAHLKTKAKDGPGSTNAKITGFNVVAAHVWRCKALSSGSEYDPERVSTVLYAVDIRSRLNLPLSLAGNAVLSAYASAKCKEIEEGPLSRLVEMVTEGTNRMTGEYARSVIDWGEVNKGFPNGEFLISSWWRLGFADVEYPWGKPRYSCPVVYHRKDIILLFPDIVGADNNNEVNVLVALPGKEMEKFETLFHKFLA
- acyltransferase activity of lysate towards the substrates [1]: showed activity towards all of these substrates; also recorded: acylated the cannabinoids with both acyl-CoAs

B2: HuAAT5: BAHD alcohol acyltransferase from Helichrysum umbraculigerum, recombinantly expressed in E. coli, SEQ ID NO: 19 (protein, listed as Helichrysum umbraculigerum)
chain: MPSSSSSPSSTADSVTIISKCTVYPHMKNSTPESLQLSVSDLPMLSCQYIQKGVLLSQPPPNHTNNIISHLKLSLSKTLSHFPPLAGRLSTDSHGHVSIICNDSGVEFVHSTANHLHTHQILPLNSDVHPCFKTFFAFDKTLSYAGHHQPIAAVQVTELADGLFIGCTVNHAVVDGTSFWNFFNTFAEITKGCQKVTNLPDFSRENVFISPVVLPLPSGGPSATFSGDEPLRERIIHFSRDAILKMKFRANNPLWRQPQNSDLDDTEIYGKVCNDINGKVNGAFKPKSEISSFQSLCGQLWRAVTRARKFNDPIKTTTFRMAVNCRHRLDPKVDKLYFGNLIQSIPTVASVGELLSHDLSWAANELHQNVVAHDNATVRRGVKDWENNPKLFPLGNFDGAMITMGSSPRFPMYNNDFGWGRPMAVRSGKANKFDGKISAFPGRDGDGSVDLEVVLAPETMACLERDHEFMQYVS
- amounts of products catalyzed, compared between the two active enzymes ([1]; HuAAT5 versus HuAAT14): considerably greater amounts of products
- acyltransferase activity of lysate towards the substrates [1]: showed activity towards all of these substrates; also recorded: acylated the cannabinoids with both acyl-CoAs
